Results as given in US20250134870A1, “PATHWAY MODULATOR, PHARMACEUTICAL COMPOSITION HAVING SAME, USE THEREOF, AND THERAPEUTIC METHOD USING SAME” (Jiangsu Yahong Meditech Co., Ltd., priority 2021, published 2025).

What was measured:
[1] = test system: bleomycin-induced skin fibrosis; assay: Bleomycin-induced skin fibrosis in mice: skin histopathology (dermal thickness, capillary density score, inflammatory cell infiltration score); type: in vivo, male C57BL/6 mice
Protocol: The skin tissue of the lesioned skin was subjected to dehydration, embedding and sectioning according to the pathology SOP, and the tissue was stained by HE and Masson staining. Histopathological analysis was performed according to the following methods:
Masson-stained sections were panoramically scanned by using Nanozomer S210 and the scanned images were subjected to quantitative analysis using Visiopharm VIS6.0 software. The degree of fibrosis was currently represented by the dermal thickness after Masson staining.
The fields of observation was selected in the dermis layer of the lesioned area (the number of fields selected was determined according to the size of the lesioned area) and scored according to the area occupied by capillaries in the area: • 0: No capillary formed • 1: The proportion of capillaries formed was less than 25%; • 2: The proportion of capillaries formed was 25-50%; • 3: The proportion of capillaries formed was 50-75%; • 4: The proportion of capillaries formed was greater than 75%. 3.8.3 Inflammatory cell infiltration score of dermis layer
The fields of observation was selected in the dermis layer of the lesioned area (the number of fields selected was determined according to the size of the lesioned area) and scored according to the degree of inflammatory cell infiltration: • 0: No inflammatory cell infiltration: • 1: A small amount of focal inflammatory cell infiltration; • 2: Scattered diffuse inflammatory cell infiltration: • 3: A large amount of diffuse inflammatory cell infiltration; • 4: A large amount of agglomerated inflammatory cell infiltration.

[2] = test system: IRBP R16-induced experimental autoimmune uveoretinitis (EAU); assay: Bovine IRBP R16-induced experimental autoimmune uveoretinitis (EAU): clinical score, AUC, incidence (Example 6); type: in vivo, Lewis rats
Protocol: On Day-1 (i.e., the day before immunization, hereinafter), 60 rats were randomly divided into 6 groups (n=10) based on body weight (see Table 18). On Day 0, rats in Groups 2 to 6 were anesthetized with isoflurane, followed by subcutaneous injection of a total of […] of emulsion resulting from IRBP R16 and CFA emulsified at a 1:1 v/v ratio, on both thighs (50 μL at each site) and tail head (100 μL), respectively.
From Day 0 after immunization, the eyes of rats were checked daily with a flashlight by gently opening the upper and lower eyelids of the test rats, and the incidence of disease was recorded. Clinical symptoms were scored in a blind manner from the onset of disease to the end of the study according to the criteria listed in Table 17.
Dosing started from Day 0 accurately according to the animal body weight for a total of 16 days.
The results were expressed as “mean±standard error”. Graphpad Prism or SPSS was used for statistical analysis, and p<0.05 was considered statistically significant.

[3] = 50 and 100 mg/kg PO QD, 28 days (Test groups 2#, 3#)

Q: `NCc1c[nH]c(=S)n1[C@H]1CCc2c(F)cc(F)cc2C1` [Nepicastat] was tested. Which “degree of fibrosis of the lesioned skin” value ([1]; 100 mg/kg PO QD, 28 days (Test group 3#)) did it give?
A: Its value is “reduce the degree of fibrosis of the lesioned skin”.

Q: And the “effect to reduce dermal thickness” value ([1]; 25, 50 and 100 mg/kg PO QD, 28 days)?
A: The value was “dose-dependent, and the higher the dose, the more obvious the result, but there was no significant difference compared with the model group”.

Q: What about the “inflammatory cell infiltration of the lesioned skin” value [1, 3] of the same compound?
A: The value was “significantly reduce”.

Q: And the subdermal capillary hyperplasia [1, 3]?
A: The subdermal capillary hyperplasia was “significantly reduce”.

Q: And the “Area under the curve (AUC) of clinical score” value (from here on “Area under the curve (AUC)”) ([2]; 25 mg/kg PO QD × 16 days)?
A: Its value is 45.30.

Q: And the “Area under the curve (AUC)” value ([2]; 50 mg/kg PO QD × 16 days)?
A: Its value is 39.65.

Q: And the “Area under the curve (AUC)” value ([2]; 100 mg/kg PO QD × 16 days)?
A: Its value is 37.65.

Q: And the “symptoms of uveitis, EAU clinical score and clinical score AUC” value ([2]; 25, 50 and 100 mg/kg PO QD × 16 days)?
A: Its value is “moderately ameliorate the symptoms of uveitis and reduced the EAU clinical score and clinical score AUC, but this effect was not statistically significant”.

Q: And the “Incidence rate (%)” value ([2]; Day 0, 25 mg/kg PO QD)?
A: The value was 0%.

Q: What about the “Incidence rate (%)” value ([2]; Day 0, 50 mg/kg PO QD) of the same compound?
A: Its value is 0%.

Q: And the “Incidence rate (%)” value ([2]; Day 0, 100 mg/kg PO QD)?
A: The value was 0%.

Q: What about the “Incidence rate (%)” value ([2]; Day 1, 25 mg/kg PO QD) of the same compound?
A: The value was 0%.

Q: What about the “Incidence rate (%)” value ([2]; Day 1, 50 mg/kg PO QD) of the same compound?
A: Its value is 0%.

Q: And the “Incidence rate (%)” value ([2]; Day 1, 100 mg/kg PO QD)?
A: Its value is 0%.

Q: And the “Incidence rate (%)” value ([2]; Day 2, 25 mg/kg PO QD)?
A: The value was 0%.

Q: What about the “Incidence rate (%)” value ([2]; Day 2, 50 mg/kg PO QD) of the same compound?
A: The value was 0%.

Q: And the “Incidence rate (%)” value ([2]; Day 2, 100 mg/kg PO QD)?
A: The value was 0%.

Q: What about the “Incidence rate (%)” value ([2]; Day 3, 25 mg/kg PO QD) of the same compound?
A: Its value is 0%.

Q: What about the “Incidence rate (%)” value ([2]; Day 3, 50 mg/kg PO QD) of the same compound?
A: The value was 0%.

Q: And the “Incidence rate (%)” value ([2]; Day 3, 100 mg/kg PO QD)?
A: Its value is 0%.

Q: And the “Incidence rate (%)” value ([2]; Day 4, 25 mg/kg PO QD)?
A: Its value is 0%.

Q: What about the “Incidence rate (%)” value ([2]; Day 4, 50 mg/kg PO QD) of the same compound?
A: The value was 0%.

Q: And the “Incidence rate (%)” value ([2]; Day 4, 100 mg/kg PO QD)?
A: The value was 0%.

Q: And the “Incidence rate (%)” value ([2]; Day 5, 25 mg/kg PO QD)?
A: Its value is 70%.

Q: And the “Incidence rate (%)” value ([2]; Day 5, 50 mg/kg PO QD)?
A: The value was 70%.

Q: And the “Incidence rate (%)” value ([2]; Day 5, 100 mg/kg PO QD)?
A: Its value is 80%.

Q: What about the “Incidence rate (%)” value ([2]; Day 6, 25 mg/kg PO QD) of the same compound?
A: The value was 100%.

Q: What about the “Incidence rate (%)” value ([2]; Day 6, 50 mg/kg PO QD) of the same compound?
A: Its value is 100%.

Q: And the “Incidence rate (%)” value ([2]; Day 6, 100 mg/kg PO QD)?
A: The value was 80%.

Q: What about the “Incidence rate (%)” value ([2]; Day 7, 25 mg/kg PO QD) of the same compound?
A: The value was 70%.

Q: What about the “Incidence rate (%)” value ([2]; Day 7, 50 mg/kg PO QD) of the same compound?
A: The value was 100%.

Q: And the “Incidence rate (%)” value ([2]; Day 7, 100 mg/kg PO QD)?
A: Its value is 50%.

Q: What about the “Incidence rate (%)” value ([2]; Day 8, 25 mg/kg PO QD) of the same compound?
A: The value was 100%.

Q: What about the “Incidence rate (%)” value ([2]; Day 8, 50 mg/kg PO QD) of the same compound?
A: Its value is 100%.

Q: What about the “Incidence rate (%)” value ([2]; Day 8, 100 mg/kg PO QD) of the same compound?
A: Its value is 100%.

Q: What about the “Incidence rate (%)” value ([2]; Day 9, 25 mg/kg PO QD) of the same compound?
A: Its value is 100%.

Q: What about the “Incidence rate (%)” value ([2]; Day 9, 50 mg/kg PO QD) of the same compound?
A: The value was 100%.

Q: And the “Incidence rate (%)” value ([2]; Day 9, 100 mg/kg PO QD)?
A: The value was 100%.

Q: And the “Incidence rate (%)” value ([2]; Day 10, 25 mg/kg PO QD)?
A: The value was 100%.

Q: What about the “Incidence rate (%)” value ([2]; Day 10, 50 mg/kg PO QD) of the same compound?
A: Its value is 100%.

Q: What about the “Incidence rate (%)” value ([2]; Day 10, 100 mg/kg PO QD) of the same compound?
A: The value was 100%.

Q: What about the “Incidence rate (%)” value ([2]; Day 11, 25 mg/kg PO QD) of the same compound?
A: The value was 100%.

Q: What about the “Incidence rate (%)” value ([2]; Day 11, 50 mg/kg PO QD) of the same compound?
A: Its value is 100%.

Q: What about the “Incidence rate (%)” value ([2]; Day 11, 100 mg/kg PO QD) of the same compound?
A: Its value is 100%.

Q: And the “Incidence rate (%)” value ([2]; Day 12, 25 mg/kg PO QD)?
A: Its value is 100%.

Q: What about the “Incidence rate (%)” value ([2]; Day 12, 50 mg/kg PO QD) of the same compound?
A: The value was 100%.

Q: And the “Incidence rate (%)” value ([2]; Day 12, 100 mg/kg PO QD)?
A: Its value is 100%.

Q: What about the “Incidence rate (%)” value ([2]; Day 13, 25 mg/kg PO QD) of the same compound?
A: Its value is 100%.

Q: And the “Incidence rate (%)” value ([2]; Day 13, 50 mg/kg PO QD)?
A: Its value is 100%.

Q: And the “Incidence rate (%)” value ([2]; Day 13, 100 mg/kg PO QD)?
A: Its value is 100%.

Q: And the “Incidence rate (%)” value ([2]; Day 14, 25 mg/kg PO QD)?
A: The value was 100%.

Q: What about the “Incidence rate (%)” value ([2]; Day 14, 50 mg/kg PO QD) of the same compound?
A: Its value is 100%.

Q: And the “Incidence rate (%)” value ([2]; Day 14, 100 mg/kg PO QD)?
A: Its value is 100%.

Q: What about the “Incidence rate (%)” value ([2]; Day 15, 25 mg/kg PO QD) of the same compound?
A: The value was 100%.

Q: And the “Incidence rate (%)” value ([2]; Day 15, 50 mg/kg PO QD)?
A: Its value is 100%.

Q: And the “Incidence rate (%)” value ([2]; Day 15, 100 mg/kg PO QD)?
A: The value was 100%.

Q: What about the “Incidence rate (%)” value ([2]; Day 16, 25 mg/kg PO QD) of the same compound?
A: Its value is 100%.

Q: And the “Incidence rate (%)” value ([2]; Day 16, 50 mg/kg PO QD)?
A: The value was 100%.

Q: What about the “Incidence rate (%)” value ([2]; Day 16, 100 mg/kg PO QD) of the same compound?
A: The value was 100%.

Q: And the “Incidence rate (%)” value ([2]; Day −1, 25 mg/kg PO QD)?
A: Its value is 0%.

Q: And the “Incidence rate (%)” value ([2]; Day −1, 50 mg/kg PO QD)?
A: The value was 0%.

Q: And the “Incidence rate (%)” value ([2]; Day −1, 100 mg/kg PO QD)?
A: Its value is 0%.

Q: And the inhibition at 25 mg/kg ([2]; Rattus norvegicus, 384 h, 25 mg/kg PO QD × 16 days, vs model control, read-out: Inhibition rate of clinical score AUC)?
A: The inhibition at 25 mg/kg was 8.67%.

Q: And the inhibition at 50 mg/kg ([2]; Rattus norvegicus, 384 h, 50 mg/kg PO QD × 16 days, vs model control, read-out: Inhibition rate of clinical score AUC)?
A: The inhibition at 50 mg/kg was 20.1%.

Q: What about the inhibition at 100 mg/kg ([2]; Rattus norvegicus, 384 h, 100 mg/kg PO QD × 16 days, vs model control, read-out: Inhibition rate of clinical score AUC) of the same compound?
A: The inhibition at 100 mg/kg was 24.1%.
